What was measured:
[1] = CuAAC macrocyclisation (azide + terminal alkyne to 1,4-triazole); CuI 2 eq, DIPEA 3 eq; settings: THF, 1.0 mM, 66.0 °C
[2] = RuAAC macrocyclisation (azide + terminal alkyne to 1,5-triazole); [Cp*RuCl]4 0.1 eq (more for 30b, 31b); settings: the molecule shown is the open-chain precursor, THF, 1.0 mM, 66.0 °C
[3] = CuAAC macrocyclisation (azide + terminal alkyne to 1,4-triazole); CuI 2 eq, DIPEA 3 eq; yield includes preceding coupling step on crude precursor; settings: the molecule shown is the open-chain precursor, THF, 1.0 mM, 66.0 °C, 2 steps
[4] = RuAAC macrocyclisation (azide + terminal alkyne to 1,5-triazole); [Cp*RuCl]4 0.1 eq (0.2 eq for 28b); yield includes preceding coupling step on crude precursor; settings: the molecule shown is the open-chain precursor, THF, 1.0 mM, 66.0 °C, 2 steps

CN(C)C(=O)[C@@H]1CCCCn2cc(nn2)CN(CC(=O)OCCC(F)(F)C(F)(F)C(F)(F)C(F)(F)C(F)(F)C(F)(F)C(F)(F)C(F)(F)F)C(=O)c2cccc(c2)NC(=O)N1 [6 -> 24a]
ring closure, isolated yield ([1]; from C#CCN(CC(=O)OCCC(F)(F)C(F)(F)C(F)(F)C(F)(F)C(F)(F)C(F)(F)C(F)(F)C(F)(F)F)C(=O)c1cccc(NC(=O)N[C@@H](CCCCN=[N+]=[N-])C(=O)N(C)C)c1, 17-membered ring): 70%

C#CCN(CC(=O)OCCC(F)(F)C(F)(F)C(F)(F)C(F)(F)C(F)(F)C(F)(F)C(F)(F)C(F)(F)F)C(=O)c1cccc(NC(=O)N[C@@H](CCCCN=[N+]=[N-])C(=O)N(C)C)c1 [6 -> 24b]
ring closure, isolated yield ([2]; 16-membered ring, 6.0 h): 33%

O=C1CCc2cccc(c2)NC(=O)NCCc2ccc(cc2)-n2cc(nn2)CN(CC(=O)OCCC(F)(F)C(F)(F)C(F)(F)C(F)(F)C(F)(F)C(F)(F)C(F)(F)C(F)(F)F)C(=O)c2cccc(c2)N1 [13 -> 26a]
ring closure, isolated yield ([1]; from C#CCN(CC(=O)OCCC(F)(F)C(F)(F)C(F)(F)C(F)(F)C(F)(F)C(F)(F)C(F)(F)C(F)(F)F)C(=O)c1cccc(NC(=O)CCc2cccc(NC(=O)NCCc3ccc(N=[N+]=[N-])cc3)c2)c1, 25-membered ring, 36.0 h): 60%

C#CCN(CC(=O)OCCC(F)(F)C(F)(F)C(F)(F)C(F)(F)C(F)(F)C(F)(F)C(F)(F)C(F)(F)F)C(=O)c1cccc(NC(=O)CCc2cccc(NC(=O)NCCc3ccc(N=[N+]=[N-])cc3)c2)c1 [13 -> 26b]
ring closure, isolated yield ([2]; 24-membered ring, 5.0 h): 54%

C#CCN(CC(=O)OCCC(F)(F)C(F)(F)C(F)(F)C(F)(F)C(F)(F)C(F)(F)C(F)(F)C(F)(F)F)C(=O)c1cccc(NC(=O)CCc2cccc(NC(=O)NCCc3ccc(NC(=O)N[C@@H](CCCCN=[N+]=[N-])C(=O)N(C)C)cc3)c2)c1 [14 -> 27a (over two steps from 13)]
ring closure, yield over several steps ([3]; 33-membered ring, 24.0 h): 31%

C#CCN(CC(=O)OCCC(F)(F)C(F)(F)C(F)(F)C(F)(F)C(F)(F)C(F)(F)C(F)(F)C(F)(F)F)C(=O)c1cccc(NC(=O)CCc2cccc(NC(=O)NCCc3ccc(NC(=O)N[C@@H](CCCCN=[N+]=[N-])C(=O)N(C)C)cc3)c2)c1 [14 -> 27b (over two steps from 13)]
ring closure, yield over several steps ([4]; 32-membered ring, 24.0 h): 12%

C#CCN(CC(=O)OCCC(F)(F)C(F)(F)C(F)(F)C(F)(F)C(F)(F)C(F)(F)C(F)(F)C(F)(F)F)C(=O)c1cccc(N(C(=O)CCCCCCCN=[N+]=[N-])C(C(=O)NC2CCCCC2)c2ccccc2)c1 (stereo not shown) [17a -> 28a (over two steps from 2)]
ring closure, yield over several steps ([3]; 18-membered ring): 18%

C#CCN(CC(=O)OCCC(F)(F)C(F)(F)C(F)(F)C(F)(F)C(F)(F)C(F)(F)C(F)(F)C(F)(F)F)C(=O)c1cccc(N(C(=O)CCCCCCCN=[N+]=[N-])C(C(=O)NC2CCCCC2)c2ccccc2)c1 (stereo not shown) [17a -> 28b (over two steps from 2)]
ring closure, yield over several steps ([4]; 17-membered ring, 48.0 h): 47%

C#CCN(CC(=O)OCCC(F)(F)C(F)(F)C(F)(F)C(F)(F)C(F)(F)C(F)(F)C(F)(F)C(F)(F)F)C(=O)c1cccc(N(C(=O)CCCCCCCN=[N+]=[N-])C(C(=O)NC2CCCCC2)c2ccc(Br)cc2)c1 (stereo not shown) [17b -> 29a (over two steps from 2)]
ring closure, yield over several steps ([3]; 18-membered ring): 24%

C#CCN(CC(=O)OCCC(F)(F)C(F)(F)C(F)(F)C(F)(F)C(F)(F)C(F)(F)C(F)(F)C(F)(F)F)C(=O)c1cccc(N(C(=O)CCCCCCCN=[N+]=[N-])C(C(=O)NC2CCCCC2)c2ccc(Br)cc2)c1 (stereo not shown) [17b -> 29b (over two steps from 2)]
ring closure, yield over several steps ([4]; 17-membered ring): 78%

CO[C@H]1C(=O)N2c3cccc(c3)C(=O)N(CC(=O)OCCC(F)(F)C(F)(F)C(F)(F)C(F)(F)C(F)(F)C(F)(F)C(F)(F)C(F)(F)F)Cc3cn(nn3)CCCCc3cccc(c3)[C@@H]12 [18a -> 30a (cis beta-lactam)]
ring closure, isolated yield ([1]; from C#CCN(CC(=O)OCCC(F)(F)C(F)(F)C(F)(F)C(F)(F)C(F)(F)C(F)(F)C(F)(F)C(F)(F)F)C(=O)c1cccc(N2C(=O)[C@H](OC)[C@@H]2c2cccc(CCCCN=[N+]=[N-])c2)c1, 18-membered ring, 24.0 h): 61%

C#CCN(CC(=O)OCCC(F)(F)C(F)(F)C(F)(F)C(F)(F)C(F)(F)C(F)(F)C(F)(F)C(F)(F)F)C(=O)c1cccc(N2C(=O)[C@H](OC)[C@@H]2c2cccc(CCCCN=[N+]=[N-])c2)c1 [18a -> 30b (cis beta-lactam)]
ring closure, isolated yield ([2]; 17-membered ring, 48.0 h): 33%

CO[C@H]1C(=O)N2c3cccc(c3)C(=O)N(CC(=O)OCCC(F)(F)C(F)(F)C(F)(F)C(F)(F)C(F)(F)C(F)(F)C(F)(F)C(F)(F)F)Cc3cn(nn3)CCCCc3cccc(c3)[C@H]12 [18b -> 31a (trans beta-lactam)]
ring closure, isolated yield ([1]; from C#CCN(CC(=O)OCCC(F)(F)C(F)(F)C(F)(F)C(F)(F)C(F)(F)C(F)(F)C(F)(F)C(F)(F)F)C(=O)c1cccc(N2C(=O)[C@H](OC)[C@H]2c2cccc(CCCCN=[N+]=[N-])c2)c1, 18-membered ring, 24.0 h): 91%

C#CCN(CC(=O)OCCC(F)(F)C(F)(F)C(F)(F)C(F)(F)C(F)(F)C(F)(F)C(F)(F)C(F)(F)F)C(=O)c1cccc(N2C(=O)[C@H](OC)[C@H]2c2cccc(CCCCN=[N+]=[N-])c2)c1 [18b -> 31b (trans beta-lactam)]
ring closure, isolated yield ([2]; 17-membered ring, 96.0 h): 7%

O=C1C=CN2c3cccc(c3)C(=O)N(CC(=O)OCCC(F)(F)C(F)(F)C(F)(F)C(F)(F)C(F)(F)C(F)(F)C(F)(F)C(F)(F)F)Cc3cn(nn3)CCCCc3cccc(c3)C2C1 (stereo not shown) [19 -> 32a]
ring closure, isolated yield ([1]; from C#CCN(CC(=O)OCCC(F)(F)C(F)(F)C(F)(F)C(F)(F)C(F)(F)C(F)(F)C(F)(F)C(F)(F)F)C(=O)c1cccc(N2C=CC(=O)CC2c2cccc(CCCCN=[N+]=[N-])c2)c1, 18-membered ring, 20.0 h): 33%

C#CCN(CC(=O)OCCC(F)(F)C(F)(F)C(F)(F)C(F)(F)C(F)(F)C(F)(F)C(F)(F)C(F)(F)F)C(=O)c1cccc(N2C=CC(=O)CC2c2cccc(CCCCN=[N+]=[N-])c2)c1 (stereo not shown) [19 -> 32b]
ring closure, isolated yield ([2]; 17-membered ring, 48.0 h): 19%

O=C(CN1Cc2cn(nn2)CCCCc2cccc(c2)[C@H]2[C@@H]3CC[C@H](CC3=O)N2c2cccc(c2)C1=O)OCCC(F)(F)C(F)(F)C(F)(F)C(F)(F)C(F)(F)C(F)(F)C(F)(F)C(F)(F)F [20 -> 33 (exo azabicyclooctanone)]
ring closure, isolated yield ([1]; from C#CCN(CC(=O)OCCC(F)(F)C(F)(F)C(F)(F)C(F)(F)C(F)(F)C(F)(F)C(F)(F)C(F)(F)F)C(=O)c1cccc(N2[C@@H]3CC[C@H](C(=O)C3)[C@@H]2c2cccc(CCCCN=[N+]=[N-])c2)c1, 18-membered ring): 65%

O=C(CN1Cc2cn(nn2)CCCCc2cccc(c2)[C@H]2Nc3cc(ccc3[C@H]3OCCC[C@@H]23)C1=O)OCCC(F)(F)C(F)(F)C(F)(F)C(F)(F)C(F)(F)C(F)(F)C(F)(F)C(F)(F)F [21a -> 25a (calculated 0.012/0.021 mmol)]
ring closure, isolated yield ([1]; from C#CCN(CC(=O)OCCC(F)(F)C(F)(F)C(F)(F)C(F)(F)C(F)(F)C(F)(F)C(F)(F)C(F)(F)F)C(=O)c1ccc2c(c1)N[C@H](c1cccc(CCCCN=[N+]=[N-])c1)[C@@H]1CCCO[C@H]21, 18-membered ring): 57%

C#CCN(CC(=O)OCCC(F)(F)C(F)(F)C(F)(F)C(F)(F)C(F)(F)C(F)(F)C(F)(F)C(F)(F)F)C(=O)c1ccc2c(c1)N[C@H](c1cccc(CCCCN=[N+]=[N-])c1)[C@H]1CCCO[C@@H]21 [21b -> 25b (from 21b/21c mixture, over two steps from 2)]
ring closure, yield over several steps ([3]; 18-membered ring): 4%

C#CCN(CC(=O)OCCC(F)(F)C(F)(F)C(F)(F)C(F)(F)C(F)(F)C(F)(F)C(F)(F)C(F)(F)F)C(=O)c1cccc2c1[C@@H]1OCCC[C@@H]1[C@H](c1cccc(CCCCN=[N+]=[N-])c1)N2 [21c -> 25c (from 21b/21c mixture, over two steps from 2)]
ring closure, yield over several steps ([3]; 18-membered ring): 7%

O=C(CN1Cc2cn(nn2)CCCCc2cccc(c2)[C@@H]2Nc3cccc(c3[C@H]3OCCC[C@H]32)C1=O)OCCC(F)(F)C(F)(F)C(F)(F)C(F)(F)C(F)(F)C(F)(F)C(F)(F)C(F)(F)F [21d -> 25d (calculated 0.011/0.017 mmol)]
ring closure, isolated yield ([1]; from C#CCN(CC(=O)OCCC(F)(F)C(F)(F)C(F)(F)C(F)(F)C(F)(F)C(F)(F)C(F)(F)C(F)(F)F)C(=O)c1cccc2c1[C@H]1OCCC[C@H]1[C@H](c1cccc(CCCCN=[N+]=[N-])c1)N2, 18-membered ring): 65%

C#CCN(CC(=O)OCCC(F)(F)C(F)(F)C(F)(F)C(F)(F)C(F)(F)C(F)(F)C(F)(F)C(F)(F)F)C(=O)c1cccc(NC(C#N)c2cccc(CCCCN=[N+]=[N-])c2)c1 (stereo not shown) [22 -> 34 (over two steps from 2)]
ring closure, yield over several steps ([3]; 18-membered ring): 71%

— article PMC5025730
